The values that follow come from ChEMBL document CHEMBL3046471, “Evaluation of the anti-inflammatory activity of some pyrrolo[2,3-d]pyrimidine derivatives” (2013).

Format in all cases: functional
Assay [1] deals with Rattus norvegicus. In words: Anti-inflammatory activity in sc dosed Sprague-Dawley Rattus norvegicus (rat) assessed as inhibition of carrageenan-induced paw edema administered at 1 hr prior to carrageenan injection measured at 4 hr post-carrageenan challenge by water plethysmometer. For orientation: The carrageenan paw model is a standard test of acute inflammation.
In assay [2] the test system is Rattus norvegicus. In words: Anti-inflammatory activity in sc dosed Sprague-Dawley Rattus norvegicus (rat) assessed as inhibition of carrageenan-induced paw edema administered at 1 hr prior to carrageenan injection measured at 1 hr post-carrageenan challenge by water plethysmometer.
In assay [3] the test system is Rattus norvegicus. The experiment in a line: Anti-inflammatory activity in sc dosed Sprague-Dawley Rattus norvegicus (rat) assessed as inhibition of carrageenan-induced paw edema administered at 1 hr prior to carrageenan injection measured at 3 hr post-carrageenan challenge by water plethysmometer.
In assay [4] the test system is Rattus norvegicus. In words: Anti-inflammatory activity in sc dosed Sprague-Dawley Rattus norvegicus (rat) assessed as inhibition of carrageenan-induced paw edema administered at 1 hr prior to carrageenan injection measured at 2 hr post-carrageenan challenge by water plethysmometer.
Assay [5] has as its system Rattus norvegicus. The experiment in a line: Anti-inflammatory activity in Sprague-Dawley Rattus norvegicus (rat) assessed as inhibition of carrageenan-induced paw edema administered at 70 mg/kg, sc at 1 hr prior to carrageenan injection measured at 1 hr post-carrageenan challenge by water plethysmometer. The note with it: route subcutaneous.
Assay [6] relates to Rattus norvegicus. In words: Anti-inflammatory activity in Sprague-Dawley Rattus norvegicus (rat) assessed as inhibition of carrageenan-induced paw edema at 70 mg/kg, sc administered at 1 hr prior to carrageenan injection measured at 2 hr post-carrageenan challenge by water plethysmometer. The note with it: route subcutaneous.
In assay [7] the test system is Rattus norvegicus. In words: Anti-inflammatory activity in Sprague-Dawley Rattus norvegicus (rat) assessed as inhibition of carrageenan-induced paw edema at 70 mg/kg, sc administered at 1 hr prior to carrageenan injection measured at 4 hr post-carrageenan challenge by water plethysmometer. As to conditions: route subcutaneous.
Assay [8] has as its system Rattus norvegicus. In words: Anti-inflammatory activity in Sprague-Dawley Rattus norvegicus (rat) assessed as inhibition of carrageenan-induced paw edema at 70 mg/kg, sc administered at 1 hr prior to carrageenan injection measured at 3 hr post-carrageenan challenge by water plethysmometer. As to conditions: route subcutaneous.

For the compound `COc1ccc(-n2c(-c3ccccc3)c(-c3ccccc3)c3c2ncn2nnnc32)cc1`, the “inhibition (INH)” value is listed as 39.21% in the assay with Rattus norvegicus [1], 0% in the assay with Rattus norvegicus [2], 19.7% in the assay on Rattus norvegicus [3] and 0% in the assay on Rattus norvegicus [4].

Consider `COc1ccc(-n2cc(-c3ccccc3)c3c(Cl)ncnc32)cc1`, for which the “inhibition (INH)” value is listed as 18.89% with Rattus norvegicus [1], 13.4% in the assay with Rattus norvegicus [2], 32.9% in the assay with Rattus norvegicus [3] and 17.3% in the assay with Rattus norvegicus [4].

`COc1ccc(-n2cc(-c3ccccc3)c3c(-n4nc(C)cc4C)ncnc32)cc1`: the “inhibition (INH)” value in the assay on Rattus norvegicus [1] was determined as 61.9%; in the assay with Rattus norvegicus [2] it was 7.82%; with Rattus norvegicus [3] it was 35.66%; with Rattus norvegicus [4], 23.85%.

As to `CC(C)Cc1ccc(C(C)C(=O)O)cc1` (stereo unspecified) [IBUPROFEN], the inhibition in vivo at 70 mg/kg worked out at 6.08% with Rattus norvegicus [5], 45% in the assay on Rattus norvegicus [6], 69.5% in the assay on Rattus norvegicus [7] and 60.7% in the assay on Rattus norvegicus [8].

In the case of `COc1ccc(-n2cc(-c3ccccc3)c3c(NN)ncnc32)cc1`, the “inhibition (INH)” value is 50.26% in the assay with Rattus norvegicus [1], 23.04% with Rattus norvegicus [2], 41.73% with Rattus norvegicus [3] and 8.85% in the assay with Rattus norvegicus [4].

Take `Cc1ccc(-n2c3c(c(-c4ccccc4)c2-c2ccccc2)C2=NNC(=O)CN2C=N3)cc1`: the “inhibition (INH)” value with Rattus norvegicus [1] came to 34.92%; with Rattus norvegicus [2], 17.39%; with Rattus norvegicus [3] it was 28.31%; with Rattus norvegicus [4] it was 23.08%.

For the compound `Cc1ccc(-n2cc(-c3ccccc3)c3c(-n4nc(C)cc4C)ncnc32)cc1`, the “inhibition (INH)” value with Rattus norvegicus [1] is given as 59.25%; with Rattus norvegicus [2] it was 8.7%; in the assay with Rattus norvegicus [3], 31.37%; with Rattus norvegicus [4] it was 2.56%.

As for `COc1ccc(-n2cc(-c3ccccc3)c3c2ncn2c(=S)[nH]nc32)cc1`, the “inhibition (INH)” value in the assay on Rattus norvegicus [1] turned out to be 47.62%; in the assay with Rattus norvegicus [2], 0%; in the assay with Rattus norvegicus [3], 28.31%; with Rattus norvegicus [4], 0%.

As for `COc1ccc(-n2c(-c3ccccc3)c(-c3ccccc3)c3c2ncn2cnnc32)cc1`, the “inhibition (INH)” value amounted to 47.62% in the assay on Rattus norvegicus [1], 8.69% in the assay with Rattus norvegicus [2], 27.94% in the assay on Rattus norvegicus [3] and 15.77% in the assay on Rattus norvegicus [4].

As to `COc1ccc(-n2c3c(c(-c4ccccc4)c2-c2ccccc2)C2=NNC(=O)CN2C=N3)cc1`, the “inhibition (INH)” value with Rattus norvegicus [1] was 32.8%; with Rattus norvegicus [2] it was 0%; with Rattus norvegicus [3], 15.44%; with Rattus norvegicus [4], 0%.

Take `COc1ccc(-n2cc(-c3ccccc3)c3c2ncn2cnnc32)cc1`: the “inhibition (INH)” value stood at 36.19% with Rattus norvegicus [1], 0% in the assay on Rattus norvegicus [2], 33.46% with Rattus norvegicus [3] and 0% with Rattus norvegicus [4].

For `Cc1ccc(-n2c(-c3ccccc3)c(-c3ccccc3)c3c(Cl)ncnc32)cc1`, the “inhibition (INH)” value in the assay on Rattus norvegicus [1] came out at 28.59%; in the assay on Rattus norvegicus [2], 3.92%; in the assay with Rattus norvegicus [3], 31.43%; in the assay on Rattus norvegicus [4] it was 10%.

For the compound `COc1ccc(-n2c(-c3ccccc3)c(-c3ccccc3)c3c2ncn2c(=S)[nH]nc32)cc1`, the “inhibition (INH)” value with Rattus norvegicus [1] was 34.6%; in the assay with Rattus norvegicus [2] it was 7.39%; with Rattus norvegicus [3], 19.49%; in the assay with Rattus norvegicus [4], 20.38%.

In the case of `Cc1ccc(-n2cc(-c3ccccc3)c3c(N/N=C/c4ccccc4)ncnc32)cc1`, the “inhibition (INH)” value is listed as 41.8% with Rattus norvegicus [1], 0% in the assay with Rattus norvegicus [2], 27.7% with Rattus norvegicus [3] and 0% with Rattus norvegicus [4].

For the compound `Cc1ccc(-n2cc(-c3ccccc3)c3c(Cl)ncnc32)cc1`, the “inhibition (INH)” value turned out to be 18.25% with Rattus norvegicus [1], 1.3% with Rattus norvegicus [2], 31.25% with Rattus norvegicus [3] and 1.92% with Rattus norvegicus [4].

As to `Cc1ccc(-n2c(-c3ccccc3)c(-c3ccccc3)c3c2ncn2c(=O)[nH]nc32)cc1`, the “inhibition (INH)” value in the assay with Rattus norvegicus [1] stood at 42.85%; with Rattus norvegicus [2], 0%; in the assay with Rattus norvegicus [3], 19.7%; with Rattus norvegicus [4] it was 0%.

With `Cc1ccc(-n2c(-c3ccccc3)c(-c3ccccc3)c3c2ncn2c(=S)[nH]nc32)cc1`, the “inhibition (INH)” value is reported as 23.81% in the assay with Rattus norvegicus [1], 0% in the assay on Rattus norvegicus [2], 17.27% in the assay on Rattus norvegicus [3] and 10.38% with Rattus norvegicus [4].

As for `COc1ccc(-n2c(-c3ccccc3)c(-c3ccccc3)c3c2ncn2c(C)nnc32)cc1`, the “inhibition (INH)” value in the assay with Rattus norvegicus [1] is 28.25%; in the assay with Rattus norvegicus [2] it was 0%; in the assay on Rattus norvegicus [3] it was 14.15%; with Rattus norvegicus [4] it was 0%.

Turning to `Cc1ccc(-n2c(-c3ccccc3)c(-c3ccccc3)c3c2ncn2c(C)nnc32)cc1`, the “inhibition (INH)” value stood at 23.81% with Rattus norvegicus [1], 7.39% with Rattus norvegicus [2], 16.91% in the assay with Rattus norvegicus [3] and 10% in the assay on Rattus norvegicus [4].

Consider `Cc1ccc(-n2cc(-c3ccccc3)c3c2ncn2cnnc32)cc1`, for which the “inhibition (INH)” value in the assay on Rattus norvegicus [1] was determined as 28.57%; in the assay with Rattus norvegicus [2], 0%; in the assay on Rattus norvegicus [3] it was 10.48%; in the assay with Rattus norvegicus [4], 0%.

As for `Cc1ccc(-n2cc(-c3ccccc3)c3c(NN)ncnc32)cc1`, the “inhibition (INH)” value in the assay on Rattus norvegicus [1] turned out to be 39.21%; in the assay on Rattus norvegicus [2], 0%; with Rattus norvegicus [3], 45.4%; with Rattus norvegicus [4], 0%.

Regarding `Cc1ccc(-n2c(-c3ccccc3)c(-c3ccccc3)c3c2ncn2cnnc32)cc1`, the “inhibition (INH)” value was 44.44% with Rattus norvegicus [1], 0% in the assay with Rattus norvegicus [2], 15.07% in the assay on Rattus norvegicus [3] and 0% in the assay on Rattus norvegicus [4].

As to `Cc1ccc(-n2cc(-c3ccccc3)c3c2ncn2c(C)nnc32)cc1`, the “inhibition (INH)” value in the assay on Rattus norvegicus [1] came to 32.85%; in the assay on Rattus norvegicus [2], 11.74%; with Rattus norvegicus [3] it was 29.5%; with Rattus norvegicus [4] it was 18.85%.

Turning to `COc1ccc(-n2cc(-c3ccccc3)c3c2ncn2c(C)nnc32)cc1`, the “inhibition (INH)” value in the assay on Rattus norvegicus [1] worked out at 35.98%; with Rattus norvegicus [2], 15.94%; in the assay on Rattus norvegicus [3], 27.8%; in the assay on Rattus norvegicus [4], 0.5416%.

For the compound `COc1ccc(-n2cc(-c3ccccc3)c3c(N/N=C/c4ccccc4)ncnc32)cc1`, the “inhibition (INH)” value in the assay on Rattus norvegicus [1] worked out at 66.19%; in the assay with Rattus norvegicus [2], 23.04%; in the assay with Rattus norvegicus [3], 62.68%; in the assay with Rattus norvegicus [4], 30.77%.

For the compound `Cc1ccc(-n2c(-c3ccccc3)c(-c3ccccc3)c3c(N/N=C/c4ccccc4)ncnc32)cc1`, the “inhibition (INH)” value with Rattus norvegicus [1] turned out to be 32.8%; in the assay on Rattus norvegicus [2], 0%; in the assay on Rattus norvegicus [3] it was 15.44%; in the assay with Rattus norvegicus [4], 0%.

For the compound `Cc1ccc(-n2c(-c3ccccc3)c(-c3ccccc3)c3c(NN)ncnc32)cc1`, the “inhibition (INH)” value is on record as 18.57% in the assay on Rattus norvegicus [1], 0% in the assay on Rattus norvegicus [2], 29.6% in the assay with Rattus norvegicus [3] and 0% in the assay with Rattus norvegicus [4].

For `COc1ccc(-n2c(-c3ccccc3)c(-c3ccccc3)c3c(-n4nc(C)cc4C)ncnc32)cc1`, the “inhibition (INH)” value with Rattus norvegicus [1] was determined as 74.6%; in the assay with Rattus norvegicus [2], 0%; in the assay on Rattus norvegicus [3] it was 63.24%; with Rattus norvegicus [4], 6.41%.

`COc1ccc(-n2c(-c3ccccc3)c(-c3ccccc3)c3c(Cl)ncnc32)cc1`: the “inhibition (INH)” value in the assay with Rattus norvegicus [1] was found to be 45.39%; in the assay with Rattus norvegicus [2], 0%; with Rattus norvegicus [3] it was 33.64%; with Rattus norvegicus [4], 0%.

Regarding `Cc1ccc(-n2cc(-c3ccccc3)c3c2ncn2c(=S)[nH]nc32)cc1`, the “inhibition (INH)” value amounted to 39.21% with Rattus norvegicus [1], 3.04% with Rattus norvegicus [2], 33.8% with Rattus norvegicus [3] and 19.23% in the assay with Rattus norvegicus [4].

Turning to `COc1ccc(-n2c(-c3ccccc3)c(-c3ccccc3)c3c(N/N=C/c4ccccc4)ncnc32)cc1`, the “inhibition (INH)” value with Rattus norvegicus [1] turned out to be 62.96%; in the assay with Rattus norvegicus [2], 17.39%; in the assay on Rattus norvegicus [3] it was 54.04%; with Rattus norvegicus [4], 32.31%.

With `COc1ccc(-n2c(-c3ccccc3)c(-c3ccccc3)c3c2ncn2c(=O)[nH]nc32)cc1`, the “inhibition (INH)” value was 36.5% in the assay with Rattus norvegicus [1], 1.45% in the assay with Rattus norvegicus [2], 18.5% with Rattus norvegicus [3] and 10.38% in the assay on Rattus norvegicus [4].

Regarding `Cc1ccc(-n2c(-c3ccccc3)c(-c3ccccc3)c3c2ncn2nnnc32)cc1`, the “inhibition (INH)” value in the assay on Rattus norvegicus [1] stood at 31.59%; with Rattus norvegicus [2], 5.65%; in the assay on Rattus norvegicus [3], 26.83%; in the assay on Rattus norvegicus [4], 11.54%.

For `COc1ccc(-n2c(-c3ccccc3)c(-c3ccccc3)c3c(NN)ncnc32)cc1`, the “inhibition (INH)” value in the assay with Rattus norvegicus [1] worked out at 62.38%; with Rattus norvegicus [2] it was 13.48%; in the assay on Rattus norvegicus [3] it was 61.4%; in the assay on Rattus norvegicus [4] it was 16.92%.

As a reminder, the inhibition in vivo is the share of the control response that was lost under treatment.
